One block for each molecule: values may come before it. Where no end group is shown, it is not given here.
How the values were obtained:
[1] = molecular target: DRB1*0101 (DR1) (Homo sapiens, UniProt P01903+P01911, A100R/D57E/F55L/F60I/F76Y/I96L/L162R/M171V/P40L/Q125E/R42F/V115G/Y59C); assay: HLA class II binding assay, purified HLA molecules; settings: Her2/neu DR supertype primary binding, Table XXVIII
[2] = molecular target: DRB1*0401 (DR4w4) (Homo sapiens, UniProt P01903+P01911, A100K/A169T/F76Y/I96L/K127E/L162R/M171V/N62H/P40V/Q125Y/R42H/S133A/S149N/S66Y/V115G/V209L/W38E); assay: HLA class II binding assay, purified HLA molecules; settings: Her2/neu DR supertype primary binding, Table XXVIII
[3] = molecular target: DRB1*0301 (DR3) (Homo sapiens, UniProt P01903+P01911, A100K/A102G/A103R/A169T/F55Y/I96L/K41T/L162R/M171V/P40S/Q125H/Q178H/Q39Y/R42S/S66N/T106N/T262R/W38E/Y61H); assay: HLA class II binding assay, purified HLA molecules; settings: Table XXX
Chain of DRB1*0301 (DR3) (P01903 26-254 limits assumed, other chains not shown): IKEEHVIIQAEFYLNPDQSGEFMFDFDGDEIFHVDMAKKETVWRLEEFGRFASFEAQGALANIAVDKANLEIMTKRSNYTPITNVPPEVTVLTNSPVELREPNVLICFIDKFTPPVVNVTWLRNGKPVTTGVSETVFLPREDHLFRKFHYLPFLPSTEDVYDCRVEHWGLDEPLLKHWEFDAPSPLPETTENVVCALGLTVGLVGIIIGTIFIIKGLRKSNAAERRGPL

[4] = system: CD8+ T-cells; assay: Primary in vitro CTL induction with peptide-pulsed DC, 51Cr release and in situ IFNγ assays; format: cell-based, human
Description: The colon adenocarcinoma cell lines SW403 and HT-29 were obtained from the American Type Culture Collection (ATCC) (Rockville, MD). The cell lines that were obtained from ATCC were maintained under the culture conditions recommended by the supplier. […] The colon cancer cells were treated with 100U/ml IFNγ (Genzyme) for 48 hours at 37°C before use as targets in the ^51Cr release and in situ IFNγ assays.
The monocytes were purified by plating 10 x 10^6 PBMC/well in a 6-well plate. After 2 hours at 37°C, the non-adherent cells were removed by gently shaking the plates and aspirating the supernatants. The wells were washed a total of three times with 3 ml RPMI to remove most of the non-adherent and loosely adherent cells. Three ml of complete medium containing 50 ng/ml of GM-CSF and 1,000 U/ml of IL 4 were then added to each well. […]
Induction of CTL with DC and Peptide: CD8+ T-cells were isolated by positive selection with Dynal immunomagnetic beads (Dynabeads® M-450) and the detacha-bead® reagent. […] The DC were collected and centrifuged at 1300 rpm for 5-7 minutes, washed once with PBS with 1% BSA, counted and pulsed with 40µg/ml of peptide at a cell concentration of 1-2×10^6/ml in the presence of 3µg/ml ß2- microglobulin for 4 hours at 20°C. The DC were then irradiated (4,200 rads), washed 1 time with medium and counted again. […]

- IC50 [1]: 100 nM
- IC50 [2]: 196 nM
Molecule: CSCC[C@H](NC(=O)[C@@H](NC(=O)[C@H](Cc1ccc(O)cc1)NC(=O)[C@H](C)NC(=O)[C@H](CCC(=O)O)NC(=O)[C@@H](N)CC(=O)O)C(C)C)C(=O)N[C@@H](C)C(=O)NCC(=O)N[C@H](C(=O)NCC(=O)N[C@@H](CO)C(=O)N1CCC[C@H]1C(=O)N[C@@H](Cc1ccc(O)cc1)C(=O)N[C@H](C(=O)N[C@@H](CO)C(=O)O)C(C)C)C(C)C [Her2/neu.769]

- IC50 [3]: 4220 nM
Molecule: CSCC[C@H](NC(=O)[C@H](CCCNC(=N)N)NC(=O)[C@H](CO)NC(=O)[C@H](Cc1ccccc1)NC(=O)[C@H](CCC(=O)O)NC(=O)[C@H](CO)NC(=O)[C@@H](NC(=O)[C@H](CC(C)C)NC(=O)[C@H](CCC(=O)O)NC(=O)[C@H](CCCNC(=N)N)NC(=O)[C@@H](N)Cc1ccccc1)C(C)C)C(=O)N[C@@H](C)C(=O)N[C@@H](CCCNC(=N)N)C(=O)N[C@@H](CC(=O)O)C(=O)N1CCC[C@H]1C(=O)O [Her2/neu.969]

Molecule: CC(C)C[C@H](NC(=O)[C@H](CO)NC(=O)CNC(=O)[C@H](Cc1ccccc1)NC(=O)[C@@H](NC(=O)[C@@H](N)CCCCN)C(C)C)C(=O)N[C@@H](C)C(=O)N[C@@H](Cc1ccccc1)C(=O)N[C@H](C(=O)O)C(C)C [V2V9]
- recognition of wild-type peptide and of tumor targets that endogenously express HER2/neu by the induced CTLs ([4]; expanded positive cultures): also recognized the target tumor cells
- induction of peptide-specific CTL response ([4]; normal donors, peptide-pulsed targets): induced peptide-specific CTLs

- IC50 [3]: 5770 nM
Molecule: SLSFLQDIQEVQGYV [Her2/neu.70]

Source: EP1568373A2, “Inducing cellular immune responses to HER2/neu using peptide and nucleic acid compositions” (priority 1999, dated 2001)
